In experiment [1] the target is Nitric oxide synthase 1 (Rattus norvegicus, UniProt P29476). Description: Inhibition of recombinant rat nNOS expressed in Escherichia coli using L-arginine as substrate assessed as formation of nitric oxide measured up to 60 secs by hemoglobin capture assay.
Experiment [2] deals with T1, Nitric oxide synthase, inducible (Mus musculus, UniProt P29477).
T1 sequence (P29477 whole entry): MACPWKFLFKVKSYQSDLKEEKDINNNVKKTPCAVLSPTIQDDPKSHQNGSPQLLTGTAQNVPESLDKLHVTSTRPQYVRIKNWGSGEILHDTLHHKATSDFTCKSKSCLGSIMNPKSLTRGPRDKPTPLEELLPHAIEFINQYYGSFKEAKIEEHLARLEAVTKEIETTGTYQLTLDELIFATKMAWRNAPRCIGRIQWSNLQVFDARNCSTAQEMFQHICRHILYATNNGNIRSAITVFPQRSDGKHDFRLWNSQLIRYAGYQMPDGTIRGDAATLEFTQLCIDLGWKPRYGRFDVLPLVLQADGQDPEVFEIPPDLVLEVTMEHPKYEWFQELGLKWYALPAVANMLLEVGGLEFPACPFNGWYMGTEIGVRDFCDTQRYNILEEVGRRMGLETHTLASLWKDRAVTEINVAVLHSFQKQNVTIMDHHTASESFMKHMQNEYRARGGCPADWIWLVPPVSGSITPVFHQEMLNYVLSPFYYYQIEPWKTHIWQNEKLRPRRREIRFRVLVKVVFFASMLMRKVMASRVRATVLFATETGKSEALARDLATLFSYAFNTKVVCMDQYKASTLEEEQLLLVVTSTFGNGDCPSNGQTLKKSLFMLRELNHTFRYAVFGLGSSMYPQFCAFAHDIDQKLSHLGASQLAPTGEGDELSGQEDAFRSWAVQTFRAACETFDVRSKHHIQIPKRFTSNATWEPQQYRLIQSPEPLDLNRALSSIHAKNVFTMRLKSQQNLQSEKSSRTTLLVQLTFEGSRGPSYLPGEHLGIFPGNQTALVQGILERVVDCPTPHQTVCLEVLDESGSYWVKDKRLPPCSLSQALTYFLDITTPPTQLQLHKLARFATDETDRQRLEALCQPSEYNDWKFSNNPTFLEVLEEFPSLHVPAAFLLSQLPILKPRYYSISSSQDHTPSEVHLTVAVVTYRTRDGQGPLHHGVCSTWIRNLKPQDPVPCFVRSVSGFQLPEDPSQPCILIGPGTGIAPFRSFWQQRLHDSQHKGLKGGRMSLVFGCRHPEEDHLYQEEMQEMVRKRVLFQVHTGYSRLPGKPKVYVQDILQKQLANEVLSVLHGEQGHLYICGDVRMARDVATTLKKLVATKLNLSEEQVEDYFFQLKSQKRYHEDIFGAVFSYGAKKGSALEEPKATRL
Kind of experiment: Inhibition of recombinant mouse macrophage iNOS expressed in Escherichia coli using L-arginine as substrate assessed as formation of nitric oxide measured up to 60 secs by hemoglobin capture assay.

In experiment [3] the target is T2, Nitric oxide synthase 3 (Bos taurus, UniProt P29473).
T2 sequence (P29473 whole entry): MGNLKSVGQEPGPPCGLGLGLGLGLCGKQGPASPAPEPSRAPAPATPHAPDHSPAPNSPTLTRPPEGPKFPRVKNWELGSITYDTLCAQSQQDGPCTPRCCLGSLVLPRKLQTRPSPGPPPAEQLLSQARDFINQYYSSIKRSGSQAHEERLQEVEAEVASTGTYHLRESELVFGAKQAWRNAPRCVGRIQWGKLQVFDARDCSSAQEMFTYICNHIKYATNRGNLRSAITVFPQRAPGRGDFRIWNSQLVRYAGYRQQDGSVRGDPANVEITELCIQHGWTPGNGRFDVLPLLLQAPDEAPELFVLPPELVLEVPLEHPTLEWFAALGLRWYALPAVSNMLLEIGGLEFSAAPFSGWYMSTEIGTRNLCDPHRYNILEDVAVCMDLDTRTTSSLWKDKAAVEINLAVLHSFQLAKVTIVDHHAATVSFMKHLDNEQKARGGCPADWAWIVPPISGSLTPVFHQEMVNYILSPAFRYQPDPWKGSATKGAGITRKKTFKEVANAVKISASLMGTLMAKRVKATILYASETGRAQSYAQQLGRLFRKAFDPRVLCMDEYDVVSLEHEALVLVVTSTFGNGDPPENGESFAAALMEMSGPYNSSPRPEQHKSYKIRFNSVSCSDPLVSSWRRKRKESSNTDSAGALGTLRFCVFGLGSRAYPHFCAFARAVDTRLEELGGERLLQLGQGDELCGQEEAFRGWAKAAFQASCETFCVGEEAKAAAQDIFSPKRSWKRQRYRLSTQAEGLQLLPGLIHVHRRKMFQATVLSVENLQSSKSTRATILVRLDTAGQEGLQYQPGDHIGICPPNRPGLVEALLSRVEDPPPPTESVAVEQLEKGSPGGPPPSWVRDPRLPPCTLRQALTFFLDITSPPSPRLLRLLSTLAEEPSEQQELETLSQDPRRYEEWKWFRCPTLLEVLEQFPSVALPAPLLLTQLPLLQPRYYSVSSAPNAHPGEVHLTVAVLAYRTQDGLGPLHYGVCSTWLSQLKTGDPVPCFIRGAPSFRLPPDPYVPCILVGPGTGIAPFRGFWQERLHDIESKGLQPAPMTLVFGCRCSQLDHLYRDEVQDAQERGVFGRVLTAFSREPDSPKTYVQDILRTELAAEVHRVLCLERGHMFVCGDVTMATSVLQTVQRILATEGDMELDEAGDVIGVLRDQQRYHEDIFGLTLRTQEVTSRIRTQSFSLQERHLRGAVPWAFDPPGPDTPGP
Kind of experiment: Inhibition of recombinant bovine eNOS expressed in Escherichia coli using L-arginine as substrate assessed as formation of nitric oxide measured up to 60 secs by hemoglobin capture assay.

Experiment [4] can be described thus: Selectivity ratio of Ki for recombinant bovine eNOS to Ki for recombinant rat nNOS.
A short description of experiment [5]: Selectivity ratio of Ki for recombinant mouse macrophage iNOS to Ki for recombinant rat nNOS.

Sequence of Nitric oxide synthase 1 (P29476 whole entry): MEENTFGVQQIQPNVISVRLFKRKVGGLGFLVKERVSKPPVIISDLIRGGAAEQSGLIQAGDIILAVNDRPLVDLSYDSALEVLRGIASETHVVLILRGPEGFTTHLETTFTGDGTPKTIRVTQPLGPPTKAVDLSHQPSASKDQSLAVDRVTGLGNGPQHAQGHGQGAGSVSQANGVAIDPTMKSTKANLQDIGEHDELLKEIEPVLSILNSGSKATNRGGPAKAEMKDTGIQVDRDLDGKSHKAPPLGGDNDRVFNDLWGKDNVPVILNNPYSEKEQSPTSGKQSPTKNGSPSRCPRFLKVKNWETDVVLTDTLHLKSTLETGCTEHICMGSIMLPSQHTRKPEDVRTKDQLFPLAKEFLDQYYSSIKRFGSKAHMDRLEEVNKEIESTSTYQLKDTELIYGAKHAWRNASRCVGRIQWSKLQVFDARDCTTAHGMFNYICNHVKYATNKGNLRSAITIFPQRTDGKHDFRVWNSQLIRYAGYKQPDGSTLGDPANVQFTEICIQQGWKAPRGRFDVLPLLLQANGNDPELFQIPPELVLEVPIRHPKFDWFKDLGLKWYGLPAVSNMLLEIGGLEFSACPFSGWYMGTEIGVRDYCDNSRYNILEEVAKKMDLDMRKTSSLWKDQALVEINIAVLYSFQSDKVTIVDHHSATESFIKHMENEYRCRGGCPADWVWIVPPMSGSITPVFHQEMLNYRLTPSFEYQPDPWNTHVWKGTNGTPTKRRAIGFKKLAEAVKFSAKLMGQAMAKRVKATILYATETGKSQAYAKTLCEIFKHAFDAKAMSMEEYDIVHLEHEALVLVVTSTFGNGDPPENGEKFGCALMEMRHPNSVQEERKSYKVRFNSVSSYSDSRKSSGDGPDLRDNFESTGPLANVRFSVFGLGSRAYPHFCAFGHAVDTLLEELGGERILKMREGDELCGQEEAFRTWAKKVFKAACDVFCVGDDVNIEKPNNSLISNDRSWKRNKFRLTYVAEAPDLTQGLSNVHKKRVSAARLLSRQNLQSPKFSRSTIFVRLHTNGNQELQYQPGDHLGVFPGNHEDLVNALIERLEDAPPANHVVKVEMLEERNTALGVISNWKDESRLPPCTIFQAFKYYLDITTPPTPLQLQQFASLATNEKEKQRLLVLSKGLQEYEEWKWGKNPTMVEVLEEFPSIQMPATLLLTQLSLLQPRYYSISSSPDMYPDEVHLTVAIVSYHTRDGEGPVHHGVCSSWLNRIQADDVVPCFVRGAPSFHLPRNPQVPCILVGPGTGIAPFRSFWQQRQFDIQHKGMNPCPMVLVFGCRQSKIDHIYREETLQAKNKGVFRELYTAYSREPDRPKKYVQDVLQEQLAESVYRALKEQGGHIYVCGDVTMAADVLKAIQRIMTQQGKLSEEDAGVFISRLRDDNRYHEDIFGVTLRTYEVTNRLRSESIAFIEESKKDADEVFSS

As to `Cc1cc(N)nc(COc2cccc(NCCc3cccc(F)c3)c2)c1`, in experiment [1], the Ki worked out at 2160 nM.

For the compound `Cc1cc(N)nc(COc2ccccc2-c2ccccc2OCc2ccncc2)c1`, the Ki in experiment [1] was found to be 3850 nM.

As for `Cc1cc(N)nc(CCCCCCc2cc(C)cc(N)n2)c1`, the Ki in experiment [1] came out at 33 nM; in experiment [2], 1800 nM; in experiment [3] it was 2840 nM. For the same compound, the Ratio Ki in experiment [4] came to 86; in experiment [5], 54.

As for `Cc1cc(N)nc(COCc2cccc(CNCCc3cccc(F)c3)n2)c1`, the figures for the Ki in experiment [1], in experiment [2] and in experiment [3] were 270 nM, 8430 nM and 5620 nM, respectively. For the same compound, the Ratio Ki in experiment [4] came to 21; in experiment [5] it was 31.

As to `Cc1cc(N)nc(COc2cccc(OCCCN)c2)c1`, the Ratio Ki is 298 in experiment [4] and 140 in experiment [5].

For the compound `Cc1cc(N)nc(COc2ccccc2-c2ccccc2OCC2CCNCC2)c1`, in experiment [1], the Ki was found to be 4230 nM.

Take `Cc1cc(N)nc(COc2cccc(OCc3ccncc3)c2)c1`: the Ratio Ki in experiment [4] was 102; in experiment [5], 44.

With `Cc1cc(N)nc(CCCCCc2cc(C)cc(N)n2)c1`, the Ki in experiment [2] is 375 nM.

Turning to `Cc1cc(N)nc(COc2cccc(OCC3CCNCC3)c2)c1`, the Ratio Ki in experiment [4] is 239; in experiment [5], 146.

In the case of `Cc1cc(N)nc(CCCCCCCc2cc(C)cc(N)n2)c1`, the results for the Ki in experiment [1], in experiment [2] and in experiment [3] were 86 nM, 2190 nM and 2150 nM, respectively. Besides, the Ratio Ki in experiment [4] and in experiment [5] was 25 each time.

The Ki is a dissociation constant, usually derived from enzyme kinetics or from competition with a known ligand.

The record behind these values is ChEMBL document CHEMBL2413041, “In search of potent and selective inhibitors of neuronal nitric oxide synthase with more simple structures” (Bioorg Med Chem, 2013).
